In patent US20250230193A1, “CYCLIC COMPOUND HAVING SELECTIVE KRAS INHIBITORY EFFECT ON HRAS AND NRAS” (CHUGAI SEIYAKU KABUSHIKI KAISHA, priority 2022, published 2025):
Where a SMILES comes first, the peptide text is derived from it. Bridges are numbered along the chain shown (N, C = ends). [ ]: non-standard residue; d: D form. The star is where a group is joined. hPhe(3,5-F2-4-CF3) = N[C@@H](CCc1cc(F)c(C(F)(F)F)c(F)c1)C(=O)O; hPhe(3-Cl-4-CF3) = N[C@@H](CCc1ccc(C(F)(F)F)c(Cl)c1)C(=O)O; NPrPhe(4-CF3) = CCCN[C@@H](Cc1ccc(C(F)(F)F)cc1)C(=O)O; Piperazinyl(4-(3-oxetanyl)) = C1OCC1N1CCN(*)CC1; NMeAbu(4,4,4-F3) = CN[C@@H](CC(F)(F)F)C(=O)O; NMeGly(cPent) = CN[C@H](C(=O)O)C1CCCC1; NMeD = CN[C@@H](CC(=O)O)C(=O)O; NMeL = CN[C@@H](CC(C)C)C(=O)O; Ac5c = NC1(C(=O)O)CCCC1; Sar = CNCC(=O)O

Experiments:
[1] = biological target: GDP-bound NRAS wild-type protein (Homo sapiens, UniProt P01111); experiment: Binding to NRAS by surface plasmon resonance (SPR), Single Cycle Kinetics; details: SPR; for NRAS/KRAS (ratio of KD value for GDP-bound NRAS wild-type protein to KD value for KRAS): KD ratio class
[2] = biological target: GDP-bound HRAS wild-type protein (Homo sapiens, UniProt P01112); experiment: Binding to HRAS by surface plasmon resonance (SPR), Single Cycle Kinetics; details: SPR; for HRAS/KRAS (ratio of KD value for GDP-bound HRAS wild-type protein to KD value for KRAS): KD ratio class
[3] = KD ratio, GDP-bound NRAS wild-type vs GDP-bound KRAS wild-type
[4] = KD ratio, GDP-bound HRAS wild-type vs GDP-bound KRAS wild-type

Sequence of GDP-bound HRAS wild-type protein (P01112 whole entry): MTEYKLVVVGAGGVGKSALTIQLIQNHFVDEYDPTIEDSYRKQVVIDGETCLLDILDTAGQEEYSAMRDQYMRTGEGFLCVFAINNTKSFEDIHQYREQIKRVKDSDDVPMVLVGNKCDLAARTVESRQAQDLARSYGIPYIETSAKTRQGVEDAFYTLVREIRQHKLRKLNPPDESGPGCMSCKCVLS
Sequence of GDP-bound NRAS wild-type protein (P01111 whole entry): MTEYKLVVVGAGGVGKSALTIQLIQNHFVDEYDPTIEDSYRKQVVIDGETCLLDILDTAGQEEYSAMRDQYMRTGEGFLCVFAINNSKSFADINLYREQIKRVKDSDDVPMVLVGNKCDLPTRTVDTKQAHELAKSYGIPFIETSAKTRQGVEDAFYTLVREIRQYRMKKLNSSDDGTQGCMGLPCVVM

Structure (SMILES): CCOC1CC2C(=O)NC3(CCC3)C(=O)N(C)C(C(C)CC)C(=O)N(C)[C@H](C(=O)N3CCOCC3)CC(=O)N(C)[C@@H](CC(C)C)C(=O)N[C@@H]([C@@H](C)CC)C(=O)N(C)CC(=O)N(C)[C@H]3CCCCN(C3=O)[C@@H](Cc3ccc(C(F)(F)F)cc3)C(=O)N(C)CC(=O)N[C@@H](CCc3cc(F)c(C(F)(F)F)c(F)c3)C(=O)N2C1 (some centres unmarked) [PP0812]
- NRAS/KRAS (ratio of KD value with respect to NRAS to KD value with respect to KRAS) [1, 3]: B (a compound having 3 or more and less than 10 is denoted as B)
- HRAS/KRAS (ratio of KD value with respect to HRAS to KD value with respect to KRAS) [2, 4]: B (a compound having 3 or more and less than 10 is denoted as B)

Structure (SMILES): CCO[C@@H]1C[C@H]2C(=O)NC3(CCC3)C(=O)N(C)[C@@H](C3CCCC3)C(=O)N(C)[C@H](C(=O)N(C)CC)CC(=O)N(C)[C@@H](CC)C(=O)N[C@@H]([C@@H](C)CC)C(=O)N(C)CC(=O)N(C)[C@H]3C/C=C\CCN(C3=O)[C@@H](CC3CCCCC3)C(=O)N(C)CC(=O)N[C@@H](CCc3cc(F)c(C(F)(F)F)c(F)c3)C(=O)N2C1 [PP1552]
- NRAS/KRAS (ratio of KD value for GDP-bound NRAS wild-type protein to KD value for KRAS) [1]: A (a compound having 10 or more and less than 20 is denoted as A)
- HRAS/KRAS (ratio of KD value for GDP-bound HRAS wild-type protein to KD value for KRAS) [2]: A (a compound having 10 or more and less than 20 is denoted as A)

Structure (SMILES): CCC[C@H]1C(=O)N[C@@H]([C@@H](C)CC)C(=O)N(C)CC(=O)N(C)[C@H]2C/C=C\CCN(C2=O)[C@@H](Cc2ccc(C)cc2)C(=O)N(C)CC(=O)N[C@@H](CCc2ccc(C(F)(F)F)c(OC)c2)C(=O)N2C[C@@H](C)C[C@H]2C(=O)NC2(CCC2)C(=O)N(C)[C@@H](C2CCCC2)C(=O)N(C)[C@H](C(=O)N(C)C)CC(=O)N1C [PP1857]
- NRAS/KRAS (ratio of KD value for NRAS to KD value for KRAS) [1, 3]: A (a compound having 10 or more and less than 20 is denoted as A)
- HRAS/KRAS (ratio of KD value for HRAS to KD value for KRAS) [2, 4]: B (a compound having 3 or more and less than 10 is denoted as B)

Structure (SMILES): CCC[C@H]1C(=O)N[C@@H]([C@@H](C)CC)C(=O)N(C2CC2)CC(=O)N(C)[C@H]2C/C=C\CCN(C2=O)[C@@H](CC2CCC(F)(F)CC2)C(=O)N(C)CC(=O)N[C@@H](CCc2ccc(Cl)c(Cl)c2)C(=O)N2C[C@H](OC(C)C)C[C@H]2C(=O)NC2(CC(C)(C)C2)C(=O)N(C)[C@@H](C2CCCC2)C(=O)N(C)[C@H](C(=O)N(C)C)CC(=O)N1C [PP2521]
- NRAS/KRAS (ratio of KD value with respect to NRAS to KD value with respect to KRAS) ([1]; GDP-bound NRAS wild-type vs GDP-bound KRAS wild-type): A (a compound having 10 or more and less than 20 is denoted as A)
- HRAS/KRAS (ratio of KD value with respect to HRAS to KD value with respect to KRAS) ([2]; GDP-bound HRAS wild-type vs GDP-bound KRAS wild-type): A (a compound having 10 or more and less than 20 is denoted as A)

Structure (SMILES): CCCN1C(=O)CN(C)C(=O)CN(C)C(=O)[C@H]([C@@H](C)CC)NC(=O)[C@H](CC(C)C)N(C)C(=O)C[C@@H](C(=O)N2CCN(C3COC3)CC2)N(C)C(=O)[C@H](C2CCCC2)N(C)C(=O)C2(CCCC2)NC(=O)[C@@H]2CCCN2C(=O)[C@H](CCc2ccc(C(F)(F)F)c(Cl)c2)NC(=O)CN(C)C(=O)[C@@H]1Cc1ccc(C(F)(F)F)cc1 [PP0175] ([NMeL]I[Sar][Sar][NPrPhe(4-CF3)][Sar][hPhe(3-Cl-4-CF3)]P[Ac5c][NMeGly(cPent)][NMeD]-{Piperazinyl(4-(3-oxetanyl))}; lactam N-11)
- NRAS/KRAS (ratio of KD for GDP-bound NRAS wild-type to KD for KRAS) ([1]; KD ratio NRAS/KRAS): B (a compound having 3 or more and less than 10 is denoted as B)
- HRAS/KRAS (ratio of KD for GDP-bound HRAS wild-type to KD for KRAS) ([2]; KD ratio HRAS/KRAS): B (a compound having 3 or more and less than 10 is denoted as B)

Structure (SMILES): CCCN1C(=O)CN(C)C(=O)CN(C)C(=O)[C@H]([C@@H](C)CC)NC(=O)[C@H](CC(C)C)N(C)C(=O)C[C@@H](C(=O)N(C)C)N(C)C(=O)[C@H](CC(F)(F)F)N(C)C(=O)C2(CCCC2)NC(=O)[C@@H]2CCCN2C(=O)[C@H](CCc2cc(F)c(C(F)(F)F)c(F)c2)NC(=O)CN(C)C(=O)[C@@H]1Cc1ccc(C(F)(F)F)cc1 [PP0746] ([NMeL]I[Sar][Sar][NPrPhe(4-CF3)][Sar][hPhe(3,5-F2-4-CF3)]P[Ac5c][NMeAbu(4,4,4-F3)][NMeD]-NMe2; lactam N-11)
- NRAS/KRAS (ratio of KD value with respect to GDP-bound NRAS wild-type protein to KD value with respect to KRAS) ([1]; KD ratio NRAS/KRAS): B (a compound having 3 or more and less than 10 is denoted as B)
- HRAS/KRAS (ratio of KD value with respect to GDP-bound HRAS wild-type protein to KD value with respect to KRAS) ([2]; KD ratio HRAS/KRAS): C (A compound having a KD ratio of 0.1 or more and less than 3 is denoted as C)

Structure (SMILES): CCO[C@@H]1C[C@H]2C(=O)NC3(CCC3)C(=O)N(C)[C@@H](C(CC)CC)C(=O)N(C)[C@H](C(=O)N(C)CCOC)CC(=O)N(C)[C@@H](CC)C(=O)N[C@@H]([C@@H](C)CC)C(=O)N(C)CC(=O)N(C)[C@H]3C/C=C\CCN(C3=O)[C@@H](Cc3ccc(C(F)(F)F)cc3)C(=O)N(C)CC(=O)N[C@@H](CCc3cc(F)c(C(F)(F)F)c(F)c3)C(=O)N2C1 [PP1330]
- NRAS/KRAS (ratio of KD value for GDP-bound NRAS wild-type protein to KD value for KRAS) [1]: AA (a compound having 20 or more is denoted as AA)
- HRAS/KRAS (ratio of KD value for GDP-bound HRAS wild-type protein to KD value for KRAS) [2]: A (a compound having 10 or more and less than 20 is denoted as A)
